Data reported in patent US9849110B2, “Intermittent fibrate administration method” (Biocopea Limited, priority 2012, dated 2017).

Assays:
[1] = Example 2: blood test of LDL, HDL and cholesterol levels, periodic treatment with atorvastatin, person; type: in vivo, human; conditions: for HDL level / LDL level / cholesterol level: one week on / two months off
Description: A person visits their physician and during the visit undergoes a blood test. The person is found to have an LDL level of 92 mg/dl, HDL level of 41 mg/dl and a cholesterol level of 212 mg/dl. […] To remind the person to take atorvastatin after the monthly breaks, they download an application to their smart phone and inputs the first day they are to take atorvastatin and the application automatically determines the day a month after stopping taking atorvastatin that they are to start taking the atorvastatin again. A month after taking the first weeks dose of atorvastatin, the person receives a reminder from the application on their smart phone to take the second dose of atorvastatin. This repeats on a monthly basis. The person returns to the physician for a follow on blood test six months later and they are found to have LDL level of 120 mg/dl, HDL level of 45 mg/dl and a cholesterol level of 161 mg/dl. At this point the physician changes the frequency of the breaks between week of dosing to every two months, while maintaining the dose of 20 mg. The person inputs the new schedule into the application on their smart phone and they are reminded to take atorvastatin every two month by the application. Six months later, the person returns to the physician for a blood test. […] The physician recommends that the person continue to take atorvastatin for a week followed by a two month break, which the person does. A year later the person returns to the physician for a blood test. […] The person continues taking the atorvastatin for a week every two months for the rest of their life, with their LDL levels ranging from 115-120, HDL levels ranging from 45-51 and their cholesterol levels ranging from 151-162.

[2] = Example 3: blood test of LDL, HDL and cholesterol levels, periodic treatment with fluvastatin, person; type: in vivo, human
Description: A person visits their physician and during the visit undergoes a blood test. The person is found to have an LDL level of 87 mg/dl, HDL level of 41 mg/dl and a cholesterol level of 266 mg/dl. […] To remind the person to take fluvastatin following the two month breaks, the physician inputs the days that the person is to take fluvastatin and arranges for the person to receive text messages through Skype that the person will receive on their cell phone and their personal computer. Two months after taking the first weeks dose of atorvastatin, the person receives a reminder by text to take the second weeks dose of atorvastatin two months later. This repeats every two months. The person returns to the physician for a follow on blood test six months later and they are found to have LDL level of 112 mg/dl, HDL level of 47 mg/dl and a cholesterol level of 188 mg/dl. At this point the physician changes the frequency of dosing to one week taking fluvastatin followed by a break of three months at a dose of 40 mg, with this schedule repeating thereafter. The physician inputs the new schedule so that the person receives text messages every three months to restart taking fluvastatin. A year later, the person returns to the physician for a blood test. […] The physician recommends that the person continue to take fluvastatin for a week followed by a three month break and repeating this schedule thereafter, which the person does. A year later the person returns to the physician for a blood test. […] The person continues taking the atorvastatin for a week followed by a three month break and repeating this schedule for the rest of their life, with their LDL levels ranging from 115-120, HDL levels ranging from 45-51 and their cholesterol levels ranging from 151-162.

[3] = Example 4: blood test of LDL, HDL and cholesterol levels, periodic treatment with lovastatin, person; type: in vivo, human
Description: A person visits their physician and during the visit undergoes a blood test. The person is found to have an LDL level of 91 mg/dl, HDL level of 40 mg/dl and a cholesterol level of 222 mg/dl. […] To remind the person to take lovastatin after each four month break, the physician inputs the days that the person is to take lovastatin and arranges for the person to receive a letter by postal mail to remind them to take the lovastatin. Four months after taking the first weeks dose of lovastatin, the person receives a reminder by postal mail to take the second weeks dose. This repeats on an every four month basis. The person returns to the physician for a follow on blood test one year later and they are found to have LDL level of 109 mg/dl, HDL level of 45 mg/dl and a cholesterol level of 184 mg/dl. The person continues taking the atorvastatin for a week followed by a break of four months, which they repeat for the rest of their life, with their LDL levels ranging from 115-120, HDL levels ranging from 45-51 and their cholesterol levels ranging from 151-162.

[4] = Example 5: blood test of LDL, HDL and cholesterol levels, periodic treatment with gemfibrozil, person; type: in vivo, human
Description: A person visits their physician and during the visit undergoes a blood test. The person is found to have an LDL level of 74 mg/dl, HDL level of 32 mg/dl and a cholesterol level of 311 mg/dl. The physician prescribes gemfibrozil at an initial dose of 600 mg taken orally for one week followed by a one month break, followed by a week of taking gemfibrozil followed by a month break, which schedule is repeated thereafter. To remind the person to take gemfibrozil after the monthly break, the physician inputs the days that the person is to take gemfibrozil and arranges for the person to receive text messages through their cell phone and a telephone call to remind them to take gemfibrozil. One month after taking the first weeks dose of gemfibrozil, the person receives a reminder by text to take the second weeks dose of gemfibrozil. This repeats on a monthly basis. The person returns to the physician for a follow on blood test six months later and they are found to have LDL level of 101 mg/dl, HDL level of 41 mg/dl and a cholesterol level of 211 mg/dl. The physician recommends that the person continue to take gemfibrozil for a week followed by a month break, which the person does on a repeated basis. A year later the person returns to the physician for a blood test.

[5] = Example 2: blood test of LDL, HDL and cholesterol levels, periodic treatment with atorvastatin, person; type: in vivo, human; conditions: 40 mg orally, one week on / a month off, after six months
[6] = meta-analysis of clinical trials; cited from earlier work
[7] = a week every two months, for the rest of their life, in mg/dL
[8] = dose of 20 mg, after six months
[9] = once monthly administration (so in the source)
[10] = one week on / three month break, for the rest of their life, in mg/dL
[11] = one week on / four months off, for the rest of their life, in mg/dL
[12] = 600 mg orally, one week on / one month off, after six months
[13] = one week on / one month off, a year later
[14] = one week on / one month off, for the rest of their life, in mg/dL
[15] = 40 mg, one week on / four months off, one year later

## CC(C)c1c(C(=O)Nc2ccccc2)c(-c2ccccc2)c(-c2ccc(F)cc2)n1CC[C@@H](O)C[C@@H](O)CC(=O)O [atorvastatin]
[1]; [7]
  HDL levels ranging: 45-51
  LDL levels ranging: 115-120
  cholesterol levels ranging: 151-162
[1]; [8]
  HDL level: 48 mg/dL
  LDL level: 120 mg/dL
  cholesterol level: 160 mg/dL
[1]; [9]
  maintaining normal levels of LDL, HDL and cholesterol: successful at maintaining normal levels of LDL, HDL and cholesterol
[1]; a year later
  HDL level: 48 mg/dL
  LDL level: 118 mg/dL
  cholesterol level: 161 mg/dL
[2]; [9]
  maintaining normal levels of LDL, HDL and cholesterol: successful at maintaining normal levels of LDL, HDL and cholesterol
[2]; [10]
  HDL levels ranging: 45-51
  LDL levels ranging: 115-120
  cholesterol levels ranging: 151-162
[3]; [11]
  HDL levels ranging: 45-51
  LDL levels ranging: 115-120
  cholesterol levels ranging: 151-162
[4]; once monthly administration
  maintaining normal levels of LDL, HDL and cholesterol: successful at maintaining normal levels of LDL, HDL and cholesterol
[5]
  HDL level: 45 mg/dL
  LDL level: 120 mg/dL
  cholesterol level: 161 mg/dL

## COCc1c(C(C)C)nc(C(C)C)c(/C=C/[C@@H](O)C[C@@H](O)CC(=O)O)c1-c1ccc(F)cc1 [cerivastatin]
[6]
  rhabdomyolysis: rhabdomyolysis did not occur

## Cc1ccc(C)c(OCCCC(C)(C)C(=O)O)c1 [gemfibrozil]
[4]; [12]
  HDL level: 41 mg/dL
  LDL level: 101 mg/dL
  cholesterol level: 211 mg/dL
[4]; [13]
  HDL level: 44 mg/dL
  LDL level: 106 mg/dL
  cholesterol level: 191 mg/dL
[4]; [14]
  HDL levels ranging: 45-51
  LDL levels ranging: 115-120
  cholesterol levels ranging: 151-162

## CC[C@H](C)C(=O)O[C@H]1C[C@@H](C)C=C2C=C[C@H](C)[C@H](CC[C@@H]3C[C@@H](O)CC(=O)O3)[C@H]21 [lovastatin]
[3]; [15]
  HDL level: 45 mg/dL
  LDL level: 109 mg/dL
  cholesterol level: 184 mg/dL
[3]; once every four month administration
  maintaining normal levels of LDL, HDL and cholesterol: successful at maintaining normal levels of LDL, HDL and cholesterol
